Molecules are shown by their SMILES.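 Dose response: 5 concentrations. Exposure: 48 h. Format: 96-well plates. Endpoint: linear interpolation; highest concentration if not reached. TGI: total growth inhibition.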

The source of these data is PubChem BioAssay (NCI).

Holding throughout (assay): NCI anticancer screen, dose series, 48 h
Experiment [1] relates to HCT-15 colon.
Experiment [2] has as its system HL-60(TB) leukemia.
Experiment [3] deals with MDA-MB-435.
In experiment [4] the test system is NCI-H23 lung.
In experiment [5] the test system is NCI-H460 lung.
Experiment [6] relates to NCI-H522 lung.
For experiment [7], the system named is OVCAR-8 ovarian.
Experiment [8] deals with SF-539 CNS.
The test system of experiment [9] is SK-OV-3 ovarian.
Experiment [10] relates to TK-10 renal.

In the case of `C[C@]12CC[C@H](O)CC1=CC[C@@H]1[C@@H]2CC[C@]2(C)C(=O)[C@@H](N3CCOCC3)C[C@@H]12`, the TGI in [1], in experiment [2], in [3], in [4], in experiment [5] and in [6] was greater than 100 µM in each case. Moreover, the TGI in experiment [7], in experiment [8], in [9] and in [10] was greater than 100 µM each time.
As for `S=C(NCc1ccccc1)c1nc[nH]c1C(=S)NCc1ccccc1`, the TGI in experiment [1] was 33.6 µM; in experiment [2], 25.5 µM; in experiment [3] it was 19.6 µM; in [4] it was 25.7 µM; in experiment [5], 18.7 µM; in [6], 21.3 µM. Moreover, the TGI in [7] came to 18.8 µM; in experiment [8], 23.2 µM; in experiment [9], 28.5 µM; in experiment [10], 23.9 µM.
With `Cc1cccc(-c2nc3ccc([N+](=O)[O-])cc3c(=O)o2)c1`, the TGI in [1], in experiment [2], in [3], in experiment [4], in [5] and in experiment [6] was greater than 100 µM throughout. The TGI in [7], in [8], in [9] and in [10] was greater than 100 µM throughout.
Regarding `CC(=O)OCCn1cnc2nc(Nc3ccccc3)nc(Cl)c21`, the TGI in experiment [1], in [2], in experiment [3], in experiment [4], in [5] and in experiment [6] was greater than 100 µM in each case. In addition, the TGI in [7], in [8], in experiment [9] and in experiment [10] was greater than 100 µM in each case.
As to `COc1ccc(C(=O)Sc2c(-c3ccccc3)c(=O)n(-c3ccccc3)c(=S)n2-c2ccccc2)cc1`, the TGI in experiment [1], in [2], in experiment [3], in [4], in experiment [5] and in experiment [6] was greater than 100 µM each time. For the same compound, the TGI in experiment [7] was greater than 100 µM; in experiment [8] it was 35.6 µM; in experiment [9], greater than 100 µM; in experiment [10], greater than 100 µM.
As to `CC(=O)OCc1cc(CCC(=O)NCCNc2c3ccccc3nc3ccccc23)cc(COC(C)=O)c1O[Si](C)(C)C(C)(C)C`, the TGI in experiment [1] turned out to be 33.3 µM; in [2] it was 6.2 µM; in experiment [3] it was 8.06 µM; in [4], 34.7 µM; in experiment [5] it was 21.6 µM; in experiment [6], 21.8 µM. Besides, the TGI in experiment [7] is 39.9 µM; in experiment [8], 4.99 µM; in experiment [9] it was 27.7 µM; in experiment [10], 23.2 µM.
On to `COc1ccc2nc3ccc(OC)cc3c(S(=O)CCCl)c2c1` (stereo not given), for which the TGI was greater than 20.6 µM in [1]; 6.86 µM in [2]; 17.1 µM in experiment [3]; 36.1 µM in experiment [4]; greater than 63.7 µM in experiment [5]; 3.23 µM in experiment [6]. Moreover, the TGI was found to be 9.2 µM in experiment [7], 4.59 µM in experiment [8], 40.2 µM in [9] and 8.26 µM in [10].
On to `C=C1CC(c2ccc(OCCCN3C(=O)c4ccccc4C3=O)c(OC)c2)OC1=O` (stereo not given), for which the TGI in experiment [1] came out at 18.6 µM; in experiment [2], 2.8 µM; in [3], 11.7 µM; in [4], 18.4 µM; in [5] it was 14.5 µM; in experiment [6], 1.54 µM. Moreover, the TGI came out at 15.1 µM in experiment [7], 1.69 µM in [8], 29.4 µM in experiment [9] and 10.8 µM in [10].
With `CCCCCN=Cc1c(O)c(O)c(C(C)C)c2cc(C)c(-c3c(C)cc4c(C(C)C)c(O)c(O)c(C=NCCCCC)c4c3O)c(O)c12`, the TGI in [1] was 78 µM; in [2], 22.2 µM; in experiment [3] it was 17.8 µM; in [4], greater than 100 µM; in experiment [5] it was greater than 100 µM; in experiment [6], 25.2 µM. Further, the TGI in experiment [7] was greater than 100 µM; in experiment [8] it was greater than 100 µM; in [9] it was 39.7 µM; in experiment [10] it was greater than 100 µM.
With `CC(C)(C)OC(=O)NCC(O)CNC(=O)OC(C)(C)C`, the TGI in experiment [1], in [2], in experiment [3], in [4], in experiment [5] and in [6] was greater than 100 µM in each case. Further, the TGI in [7], in [8], in experiment [9] and in [10] was greater than 100 µM throughout.
On to `CCOC(=O)C1=C(C)N(C)C23OC4(C(=O)OC)CC2c2ccccc2C1N3C4=O` (stereo not given), for which the TGI in experiment [1], in experiment [2], in [3], in experiment [4], in experiment [5] and in experiment [6] was greater than 100 µM throughout. For the same compound, the TGI in experiment [7], in experiment [8], in [9] and in experiment [10] was greater than 100 µM in each case.
For `CC(=O)c1c2c(cc3c1CC1(Cc4ccccc4C1=O)C3)CCC2` (stereo not given), the TGI was greater than 100 µM in experiment [1]; 33.7 µM in experiment [2]; 64 µM in [3]; greater than 100 µM in experiment [4]; greater than 100 µM in [5]; greater than 100 µM in [6]. Further, the TGI was 89.1 µM in [7], greater than 100 µM in experiment [8], greater than 100 µM in experiment [9] and greater than 100 µM in experiment [10].
For `O=C(O)/C=N\Nc1nc2ccccc2[nH]1`, the TGI in [1], in experiment [2], in [3], in [4], in experiment [5] and in [6] was greater than 100 µM throughout. The TGI in [7], in experiment [8], in experiment [9] and in [10] was greater than 100 µM in each case.
`CCn1c(-c2cc(OC)cc(OC)c2)nc2c1C(=O)c1ccccc1C2=O`: the TGI is greater than 100 µM in experiment [1]; greater than 100 µM in [2]; greater than 100 µM in [3]; greater than 100 µM in experiment [4]; greater than 100 µM in [5]; 87.9 µM in experiment [6]. Besides, the TGI in [7], in [8], in experiment [9] and in experiment [10] was greater than 100 µM each time.
